From US7601884B2, “Method of producing cloned animals by demecolcine treatment” (KNU - Industry Cooperation Foundation, priority 2007, dated 2009)

Assays:
SCNT porcine embryos = assay: In vitro development of SCNT porcine embryos after DEM treatment; assay type: cell-based, pig
Description: (§1) After the activation stimulation, the activated embryos were incubated in NCSU-23 culture medium containing 0.4 μg/ml demecolcine (DEM) (Sigma-Aldrich Corp., USA) for 4 hours.
With the same method as in Exemplary Embodiment <3-4>, the fused NT embryos were electrically activated, but not treated with DEM.
After activation stimulation, the SCNT embryos were cultured in in vitro culture medium for 6 days in an atmosphere of 5% CO2, 5% O2 and 90% N2 gas.
(§2) The SCNT embryos of Exemplary Embodiment 3 and Comparative Example 1 were cultured in vitro with an atmosphere of 5% CO2, 5% O2 and 90% N2 gases. On the second and sixth days of the in vitro culture, their division rates and development to blastocysts were monitored. Further, the blastocysts were stained with bis-benzimide to estimate the number of cells under a fluorescent microscope.

SCNT embryos [1] = assay: In vitro development of SCNT embryos according to time of DEM treatment; assay type: cell-based, pig
Description: as §2
Change in in vitro development of SCNT embryos depending on the time of DEM treatment was surveyed. The SCNT embryos activated according to Exemplary Embodiment <3-4> were incubated in NCSU-23 culture medium containing 0.4 μg/ml DEM for 2, 4 and 6 hours, respectively, and cultured in vitro by the same method as described in Experimental Example 1, followed by observation of their development to blastocysts.

[2] = test system: recipient pigs transferred with SCNT embryos; assay: Delivery rate and number of pigs born alive after in vivo transfer of DEM-treated SCNT embryos; parameters: species or system pig
Description: For in vivo transfer of the NT embryos, a naturally-estrous gilt was used as a recipient animal. On the day of the production of the NT embryos, a standing estrus pig was subjected to inhalation anesthesia, and using a common method, cut open to expose the ovaries and oviducts. After confirming the presence of follicle, ovulation and corpus luteum in the ovary, 90 to 160 SCNT embryos activated and treated with DEM were transferred into the oviduct by fimbriae. The recipient pig into which the NT embryos were transferred was monitored to confirm whether or not it was estrus, and a pregnancy test was taken every two weeks, 4 weeks after transfer of the fertilized embryos. When the recipient pig gave birth to live, SCNT embryo-derived offspring, its period of pregnancy, the number of live offspring, their weight, and morphological abnormalities found in any of the live offspring were monitored and recorded.
The effect of DEM treatment to the SCNT embryos on delivery rate and the number of pigs born alive was surveyed. Each group of SCNT embryos (107-160/a recipient pig), wherein one was treated with DEM according to Exemplary Embodiment 4 and the other (102-165/a recipient pig) was not treated with DEM, was transferred into 8 to 10 recipient pigs monitored to see whether or not they were estrus. Starting 4 weeks after transfer of the fertilized embryos, they were given pregnancy tests every 2 weeks. When they gave birth to live, SCNT embryo-derived offspring, the period of pregnancy, the number of live offspring, their weight and any morphological abnormalities were monitored and recorded. Further, the number of recipient pigs having live offspring and the number of pigs born alive in a litter were surveyed.

SCNT embryos [3] = assay: Production of pseudo-pronuclei of SCNT embryos after DEM treatment; assay type: cell-based, pig; settings: 0.4 μg/ml DEM for 4 hours
Description: as §1
The oocytes treated with DEM of Exemplary Embodiment 3 or the oocytes of Comparative Example 1 were cultured in vitro for 7 hours, activated, fixed for 11 hours, and stained to estimate the number of pseudo-pronuclei and their production rate. The fixation of the oocytes was performed using a whole-mount method. 10 to 20 oocytes were placed on a slide glass and covered with a cover glass. The oocytes were fixed in a fixative (25% acetic acid in ethanol) at 33° C. for 10 to 20 minutes. The fixed oocytes were stained with 1% orcein (in 45% acetic acid solution) and then the pseudo pronuclei were observed by a phase microscope.

[4] = 0.4 μg/ml DEM for 2 hrs, of N=141
[5] = 0.4 μg/ml DEM for 4 hrs, of N=142
[6] = 0.4 μg/ml DEM for 6 hrs, of N=142
[7] = recipient pig transferred with SCNT embryos treated with DEM

In the case of `CN[C@H]1CCc2cc(OC)c(OC)c(OC)c2-c2ccc(OC)c(=O)cc21` [DEM, demecolcine], the “≧2-Cell(%)” value (SCNT porcine embryos; 0.4 μg/ml DEM for 4 hours after activation, second day of in vitro culture) was 76.8%, the “≧2-Cell, number of embryos” value (SCNT porcine embryos; 0.4 μg/ml DEM for 4 hours after activation, second day of in vitro culture, of N=187) was 144 and the “Blastocyst(%)” value (SCNT porcine embryos; 0.4 μg/ml DEM for 4 hours after activation, sixth day of in vitro culture) was 27.3%. The “Blastocyst, number of embryos” value (SCNT porcine embryos; 0.4 μg/ml DEM for 4 hours after activation, sixth day of in vitro culture, of N=187) was 51, the “No. of Cells/Blastocysts” value (SCNT porcine embryos; 0.4 μg/ml DEM for 4 hours, bis-benzimide staining) was 39.5 and the “development to blastocysts versus Comparative Example 1 (not treated with DEM)” value (SCNT porcine embryos; embryos treated with DEM, then cultured in vitro) was “significantly improved”. For the same compound, the “change in in vitro development of the SCNT embryos according to the time of DEM treatment” value (SCNT embryos [1]; 0.4 μg/ml DEM for 2, 4 and 6 hours) was “wasn't a significant change”, the “Blastocysts (%)” value (SCNT embryos [1]; 0.4 μg/ml DEM for 2 hrs) was 24.8% and the “No. of Cells/Blastocysts” value (SCNT embryos [1]; 0.4 μg/ml DEM for 2 hrs) was 35.3 ± 2.1. For the same compound, the “≧2 cells (%)” value (SCNT embryos [1]; 0.4 μg/ml DEM for 2 hrs) was 84.4%, the “Blastocysts, number of embryos” value (SCNT embryos [1]; [4]) was 35 and the “≧2 cells, number of embryos” value (SCNT embryos [1]; [4]) was 119. For the same compound, the “Blastocysts (%)” value (SCNT embryos [1]; 0.4 μg/ml DEM for 4 hrs) was 29.6%, the “No. of Cells/Blastocysts” value (SCNT embryos [1]; 0.4 μg/ml DEM for 4 hrs) was 35.2 ± 1.8 and the “≧2 cells (%)” value (SCNT embryos [1]; 0.4 μg/ml DEM for 4 hrs) was 80.3%. For the same compound, the “Blastocysts, number of embryos” value (SCNT embryos [1]; [5]) was 42, the “≧2 cells, number of embryos” value (SCNT embryos [1]; [5]) was 114 and the “Blastocysts (%)” value (SCNT embryos [1]; 0.4 μg/ml DEM for 6 hrs) was 25.4%. For the same compound, the “No. of Cells/Blastocysts” value (SCNT embryos [1]; 0.4 μg/ml DEM for 6 hrs) was 30.8 ± 2.7, the “≧2 cells (%)” value (SCNT embryos [1]; 0.4 μg/ml DEM for 6 hrs) was 78.2% and the “Blastocysts, number of embryos” value (SCNT embryos [1]; [6]) was 36. For the same compound, the “≧2 cells, number of embryos” value (SCNT embryos [1]; [6]) was 111, the “in vitro development of SCNT embryos, comparison of treatment times” value (SCNT embryos [1]; 4-hour incubation period with 0.4 μg/ml DEM) was “highest level of growth” and the “No. of Pigs/Litter” value ([2]; SCNT embryos treated with DEM) was 3.0. For the same compound, the “No. of Pigs Born Alive” value ([2]; SCNT embryos treated with DEM, 8 recipient pigs) was 12, the “Recipient Pigs Delivered(%)” value ([2]; SCNT embryos treated with DEM, 107-160 per recipient pig) was 50.0% and the “No. of Recipient Pigs Delivered” value ([2]; SCNT embryos treated with DEM, 107-160 per recipient pig, of N=8 recipients) was 4. The “delivery rate versus Comparative Example 1 (no DEM)” value [2, 7] was “significantly increased”, the “number of pigs born alive in a litter versus Comparative Example 1 (no DEM)” value [2, 7] was “significantly increased” and the “1PPN (one pseudo pronucleus) (%)” value (SCNT embryos [3]) was 83.7%. The “Multi-PPN (2 or more pseudo pronuclei) (%)” value (SCNT embryos [3]) was 9.3%, the “Others(%)” value (SCNT embryos [3]) was 7.0% and the “1PPN (one pseudo pronucleus), number of embryos” value (SCNT embryos [3]; of N=43) was 36. The “Multi-PPN (2 or more pseudo pronuclei), number of embryos” value (SCNT embryos [3]; of N=43) was 4 and the “Others, number of embryos” value (SCNT embryos [3]; of N=43) was 3.
